Assays:
[1] = biological target: T1, KAT8 (Homo sapiens, UniProt Q9H7Z6); test: Preincubation and jump-dilution analysis of KAT8 mode of inhibition; type: biochemical; details: for time-dependent inhibition of KAT8 (preincubation assay): 12.5 μM inhibitor, preincubation 5-120 min; for KAT8 activity regained after inhibitor dilution (jump-dilution): 10× IC50 (121 μM for 19, 81 μM for 34), 100-fold dilution, any timepoint 10-240 min
T1 construct: using the previously purified KAT8 (173–458, 5 nM); 6xHis tag with TEV protease cleavage site (N, cleaved yes); made in house; host or cells: E. coli BL21(DE3)
T1 sequence (Q9H7Z6 173-458): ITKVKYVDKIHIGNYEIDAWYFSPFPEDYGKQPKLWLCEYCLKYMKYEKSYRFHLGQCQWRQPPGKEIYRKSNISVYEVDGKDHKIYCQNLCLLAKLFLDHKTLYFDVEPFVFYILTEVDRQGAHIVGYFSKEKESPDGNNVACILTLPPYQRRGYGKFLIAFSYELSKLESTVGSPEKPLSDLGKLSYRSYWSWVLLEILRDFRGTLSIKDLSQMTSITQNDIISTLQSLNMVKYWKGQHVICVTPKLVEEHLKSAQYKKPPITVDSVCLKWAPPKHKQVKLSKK
Protocol: The preincubation assay was performed by incubating KAT8 with the relevant inhibitor (12.5 μM final concentration) for 5, 10, 20, 30, 60, and 120 min at rt. The activity of KAT8 was then measured as described in the “Radioactive KAT8 inhibition assay” paragraph of the Experimental Section. […] Fifty microliters were then incubated at rt for 10, 20, 30, 60, 120, and 240 min, and the mixtures were then processed as described in the “Radioactive KAT8 inhibition assay” paragraph of the Experimental section. Radioactive signal was normalized to the DMSO control reaction incubated for 240 min, converted in percent of KAT8 activity after 240 min, and plotted against each measurement time point. Experiments were performed in biological triplicates.

[2] = system: H4K16Ac in HT29 cells; test: Western blot of H4K16Ac and KAT8 levels in HT29 cells; type: cell-based, human; details: increasing concentrations, 24 h
Protocol: For WB experiments, the cells were lysed in RIPA buffer supplemented with 1× […] protease inhibitor cocktail (Sigma-Aldrich, S8830); 20 μg of total protein was resolved in 13.5% gels by SDS-PAGE. Then, the proteins were transferred to nitrocellulose membranes (Biorad Laboratories). Membranes were blocked for 1 h and incubated overnight with the appropriate primary antibody at 4 °C. After incubation, membranes were washed and incubated with the appropriate secondary antibody (Biorad Laboratories) for 1 h at room temperature. Following primary rabbit monoclonal antibodies H4K16Ac (1:1000, E2B8W, Rabbit mAb#13534, Cell Signalling Technology), KAT8 (1:1000, D5T3R Rabbit mAb #46862 Cell Signalling Technology), GAPDH (1:1000, sc-32233, Santa Cruz Biotechnologies), anti-LC3B (Sigma-Aldrich, L7543), anti-SQSTM1/p62 (Santa Cruz Biotechnology, sc-28,359), and anti-GAPDH (Santa Cruz Biotechnology, sc-32,233). Secondary antibodies: anti-mouse (Bio-Rad Laboratories, 1,706,515) or anti-rabbit (Bio-Rad Laboratories, 1,706,516) IgG-horseradish peroxidase-conjugated antibodies. Detection was performed by ECL Western Blotting Substrate (Biorad Laboratories). Images of blots were acquired through the ChemiDoc Imaging Systems (Biorad Laboratories). The band signals were quantified using ImageJ, and values were normalized to relative controls, depending on the analysis.

[3] = system: H3K27Ac in HT29 cells; test: Immunofluorescence of H3K27Ac in HT29 cells; type: cell-based, human; details: 24 h, vs control
Protocol: For IF analysis, 1 × 10^5 HT-29 cells were grown on sterile coverslips. After 24 h, cells were exposed to different compounds for 24 h. IF staining for different acetylated lysine residues of histone H3 (H3K27Ac) and H4 (H4K16Ac) were carried out on PFA-fixed cells blocked with 20% goat serum in PBS and incubated overnight at 4 °C with primary rabbit monoclonal antibodies histone H3K27Ac (D5E4, Rabbit mAb#8173) and H4K16Ac (E2B8W, Rabbit mAb#13534, Cell Signalling Technology). Primary antibodies were detected using rabbit anti-IgG secondary antibodies conjugated with Cy3 (Jackson Immunoresearch 711-165-152). DNA was stained using 0.05 μg/mL 4′,6-diamidino-2-phenylindole (DAPI). The samples were acquired using an Olympus AX70 (Olympus America Inc.) microscope. Serial Z stacks of 0.4 μm thickness were acquired, taking care to cover the entire cell volume. For quantification of fluorescence intensity signals, images of untreated or treated cells were analyzed and processed using opensource Cell Profiler 4.1.3 image analysis software (https://cellprofiler.org/) to measure fluorescence-integrated intensity values for antibody binding relating to individual cells as previously reported.[67]

[4] = system: H460 cells; test: MTT cell proliferation assay, H460; type: cell-based, human; details: 10, 25, 50, 100 μM, 72 h
From the text: Human commercially available AML U937, breast cancer MCF7, lung adenocarcinoma NCI-H460, H1299 and A-549, glioblastoma U251, B lymphocyte AHH1 cell lines were maintained in compete 10% foetal bovine serum (FBS,) RPMI 1640 (Euroclone, Milan, IT) medium. Human commercially available colon cancer HCT116 and HT29 lines and cervix adenocarcinoma HeLa cells were maintained in compete 10% FBS Dulbecco’s Modified Eagle Medium (DMEM) high glucose medium (Euroclone). L-Glutamine, FBS, and penicillin streptomycin mixture added to medium were obtained from Euroclone. All cell lines were cultured at 37 °C in a humidified atmosphere of 5% CO2:95% air and were tested for mycoplasma contamination routinely by RT-PCR.
For analysis of cell proliferation, cells were plated in sextuplicate on 96-well plates in complete media. After 24 h, cells were exposed to different drugs for 72 h. The inhibitory effect of different drugs was assessed by MTT (Sigma, St. Louis, MO, USA) colorimetric assays as previously reported.[67] Aqueous DMSO (0.5% v/v) was used as a control (untreated). The results are reported as “viability of drug-treated cells/viability of untreated cells” × 100 and represent the average ±SD of three independent experiments. IC50 values were using fitted by nonlinear regression using GraphPad Prism 8.0.

[5] = system: UCP2 mRNA in HCT116 cells; test: qRT-PCR of UCP2 mRNA in HCT116 cells; type: cell-based, human; details: HCT116, 100 μM, 48 h
Protocol: Total RNA was isolated from cells after 48 h of treatment with compounds 19 and 34 (100 μM) using TRIzol reagent (Life Technologies) following the manufacturer’s instructions. cDNA was obtained by reverse transcription using a SensiFast cDNA Synthesis kit (Meridian Bioscience). qRT-PCR was performed using a Luna Universal qPCR Master Mix (BioLabs) and detected by Quant Studio3. The fold change of gene expression data was calculated by using the ddCT method. All samples were run in sextupled, and the results were presented as mean ± SEM. Detailed sequence of the primers used in the experiments can be found in the list below. • UCP2—Forward: 5′-[…]-3′ • Reverse 5′-[…]-3′ • HOXA9 — Forward: 5′-[…]-3′ • Reverse: 5′-[…]-3′

Row | SMILES | time-dependent inhibition of KAT8 (preincubation assay) [1] | KAT8 activity regained after inhibitor dilution (jump-dilution) [1] [%] | KAT8 expression level (WB) [2] | histone H4K16 acetylation levels (WB) [2] | levels of histone H3K27Ac (IF) [3] | antiproliferative activity in H460 [4] | UCP2 mRNA levels [5]
1 | O=C(O)c1ccc(N2N=C(c3ccccc3)/C(=C/c3ccc[nH]3)C2=O)cc1 [Compound 34, (Z)-4-(4-((1H-Pyrrol-2-yl)methylene)-5-oxo-3-phenyl-4,5-dihydro-1H-pyrazol-1-yl)benzoic Acid] | did not observe time-dependent inhibition | ~90 | no consistent variation in KAT8 levels | induced a decrease in histone H4 acetylation levels | no significant differences | essentially inactive | reduce the mRNA levels of UCP2
2 | CC1=NN(c2ccc(C(=O)O)cc2)C(=O)/C1=C\c1ccc[nH]1 [Compound 19, (Z)-4-(4-((1H-Pyrrol-2-yl)methylene)-3-methyl-5-oxo-4,5-dihydro-1H-pyrazol-1-yl)benzoic Acid] | did not observe time-dependent inhibition | ~90 | no consistent variation in KAT8 levels | induced a decrease in histone H4 acetylation levels | no significant differences | inhibited H460 proliferation | reduce the mRNA levels of UCP2
